For this assay, the target named is Prothrombin (Homo sapiens, UniProt P00734). Nature of the assay: Binding Affinity to Thrombin.

Molecules are shown by their SMILES. pKi: −log10 of the molar value.

`NC(N)c1ccc(CC(=O)C(=O)O)cc1` gave a pKi of 6.21.
Compound `NC(N)c1ccccc1` showed a pKi of 6.52.

The record behind these values is ChEMBL document CHEMBL1135611, “Thrombin inhibition by novel benzamidine derivatives: a free-energy perturbation study” (J Med Chem, 2002).
